The structures appear in SMILES notation.

For orientation: melting point means the temperature, or range, at which the solid turns liquid. Turning to `CC(C)N1CCN(C(=O)OC2CCN(c3ccc(C(N)=O)cn3)CC2)CC1` [Example 1.1, 1-(5-carbamoylpyridin-2-yl)piperidin-4-yl 4-isopropylpiperazine-1-carboxylate], the melting point lay in the range of 200.1 to 203.6 °C.

Values taken from patent US9216182B2, “Carbamate/urea derivatives containing piperidin and piperazin rings as H3 receptor inhibitors” (Novartis AG, priority 2011, dated 2015).
